Measured values from patent US10376499B2, “Combination therapy for treatment of resistant bacterial infections” (priority 2014, dated 2019).
In brackets after ≈: the same amount, converted by molar mass.

Legend:
Enterobacter cloacae = experiment: MIC, recent Enterobacteriaceae clinical isolates: Enterobacter cloacae (Examples 7, 11); format: cell-based
Citrobacter spp = experiment: MIC, recent Enterobacteriaceae clinical isolates: Citrobacter spp (Examples 7, 11); format: cell-based; conditions: Citrobacter spp, N 7
Enterobacteriaceae = experiment: organism not typed; format: cell-based
A. baumannii [1] = experiment: MIC, 20 diverse recent strains of A. baumannii (Example 10); format: cell-based, Acinetobacter baumannii; conditions: N 20 A. baumannii strains
Escherichia coli = experiment: MIC, recent Enterobacteriaceae clinical isolates: Escherichia coli (Examples 7, 11); conditions: Escherichia coli
Klebsiella pneumoniae = experiment: MIC, recent Enterobacteriaceae clinical isolates: Klebsiella pneumoniae (Examples 7, 11)
A. baumannii [2] = experiment: MIC90 of common antibiotics+compound 1, 196 contemporary clinical isolates of A. baumannii (Example 4); conditions: B-lactam + Cmpd 1 (4 μg/mL)
A. baumannii [3] = experiment: MIC by broth microdilution (CLSI), panel of 60 A. baumannii clinical isolates (Example 1)
[4] = strain ARC2598, OXA*, TEM-1, OXA-113
[5] = strain ARC2635, OXA-65, OXA-40, TEM-1
[6] = strain ARC2636, OXA-65, OXA-40, TEM-1
[7] = strain ARC2681, OXA-40, TEM-1, OXA-132
[8] = strain ARC2778, OXA-40, TEM-1, OXA-65
[9] = strain ARC2779 (A. baumannii/calcoaceticus complex), OXA-2, VIM-2
[10] = strain ARC2780 (A. baumannii/calcoaceticus complex), OXA*, OXA-2, IMP-1
[11] = strain ARC2782, OXA-66, OXA-23, TEM-1, PER-1
[12] = strain ARC3484, TEM-1, OXA-23, OXA-64
[13] = strain ARC3486, OXA-72, OXA-66, TEM-1
[14] = strain ARC3487, OXA-20, OXA-58, OXA-66
[15] = strain ARC3490, TEM-1+, PSE-2, OXA-69
[16] = strain ARC3491 (A. baumannii/calcoaceticus complex), OXA-215
[17] = strain ARC3492, OXA-40, OXA-132, TEM-1
[18] = strain ARC3495, OXA-40, OXA-109
[19] = strain ARC3513, TEM-1, OXA-23, OXA-65
[20] = strain ARC3658, OXA-66, PER-1, TEM-1, OXA-23
[21] = strain ARC3882, OXA-23, NDM-1, OXA-10*
[22] = strain ARC5073, OXA-23, TEM-1, OXA-64, PER-1
[23] = strain ARC5074, GES*, TEM-1, OXA-51
[24] = strain ARC5076, TEM-1, OXA-23, OXA-66
[25] = strain ARC5084, IMP-4(B), OXA-58, OXA-65
[26] = strain ARC5086, OXA*, TEM-1, OXA-72, OXA-66
[27] = strain ARC5088, OXA-20, OXA-58, OXA-66
[28] = strain ARC5089, PER*, TEM-1, OXA-23, OXA-66

Compound: C[C@@H](O)[C@H]1C(=O)N2C(C(=O)O)=C(SCCNC=N)C[C@H]12 [Imipenem, (5R,6S)-3-[[2-(formimidoylamino)ethyl]thio]-6-[(R)-1-hydroxyethyl]-7-oxo-1-azabicyclo[3.2.0]hept-2-ene-2-carboxylic acid]
- MIC90 (Enterobacter cloacae; N 10): 1 µg/mL (≈ 3.34 µM)
- MIC50 (Enterobacter cloacae; N 10, read-out: MIC50): 0.5 µg/mL (≈ 1.67 µM)
- MIC50 (Citrobacter spp; read-out: MIC50): 0.5 µg/mL (≈ 1.67 µM)
- MIC90 (Citrobacter spp; read-out: MIC90): 4 µg/mL (≈ 13.4 µM)
- MIC50 (Enterobacteriaceae): 0.5 µg/mL (≈ 1.67 µM)
- MIC90 (Enterobacteriaceae): 4 µg/mL (≈ 13.4 µM)
- MIC50 (A. baumannii [1]): 64 µg/mL (≈ 214 µM)
- MIC90 (A. baumannii [1]): > 64 µg/mL
- MIC Max (A. baumannii [1]): > 64 µg/mL
- MIC Min (A. baumannii [1]): 0.25 µg/mL (≈ 0.835 µM)
- MIC50 (Escherichia coli): 0.25 µg/mL (≈ 0.835 µM)
- MIC90 (Escherichia coli): 0.5 µg/mL (≈ 1.67 µM)
- MIC50 (Klebsiella pneumoniae): 0.25 µg/mL (≈ 0.835 µM)
- MIC90 (Klebsiella pneumoniae): 8 µg/mL (≈ 26.7 µM)
- MIC90 (A. baumannii [2]): 16 µg/mL

Compound: CCN1CCN(C(=O)N[C@@H](C(=O)N[C@@H]2C(=O)N3[C@@H]2SC(C)(C)[C@@H]3C(=O)O)c2ccccc2)C(=O)C1=O [Piperacillin]
- MIC90 (A. baumannii [2]): 32 µg/mL

Compound: gentamycin
- MIC (A. baumannii [3]; strain ARC593, OXA-98): 8 µg/mL
- MIC (A. baumannii [3]; strain ARC2058, OXA-95): 1 µg/mL
- MIC (A. baumannii [3]; strain ARC2461, OXA-66, TEM-1): >32 µg/mL
- MIC (A. baumannii [3]; strain ARC2462, TEM-1, OXA-66): >32 µg/mL
- MIC (A. baumannii [3]; [4]): 2 µg/mL
- MIC (A. baumannii [3]; [5]): >32 µg/mL
- MIC (A. baumannii [3]; [6]): >32 µg/mL
- MIC (A. baumannii [3]; strain ARC2674, SHV-5, OXA-113): 8 µg/mL
- MIC (A. baumannii [3]; strain ARC2675, SHV-5, OXA-113): >32 µg/mL
- MIC (A. baumannii [3]; [7]): >32 µg/mL
- MIC (A. baumannii [3]; strain ARC2682, SHV-5, OXA-113): >32 µg/mL
- MIC (A. baumannii [3]; strain ARC2777, OXA-172, TEM-1): 16 µg/mL
- MIC (A. baumannii [3]; [8]): >32 µg/mL
- MIC (A. baumannii [3]; [9]): >32 µg/mL
- MIC (A. baumannii [3]; [10]): >32 µg/mL
- MIC (A. baumannii [3]; [11]): >32 µg/mL
- MIC (A. baumannii [3]; strain ARC2788, OXA-65, TEM-1): 16 µg/mL
- MIC (A. baumannii [3]; [12]): >32 µg/mL
- MIC (A. baumannii [3]; strain ARC3485, OXA-82): 1 µg/mL
- MIC (A. baumannii [3]; [13]): >32 µg/mL
- MIC (A. baumannii [3]; [14]): 8 µg/mL
- MIC (A. baumannii [3]; strain ARC3488, OXA*, OXA-68): >32 µg/mL
- MIC (A. baumannii [3]; strain ARC3489, OXA*, OXA-68): >32 µg/mL
- MIC (A. baumannii [3]; [15]): 16 µg/mL
- MIC (A. baumannii [3]; [16]): 2 µg/mL
- MIC (A. baumannii [3]; [17]): >32 µg/mL
- MIC (A. baumannii [3]; strain ARC3493, OXA-40, OXA-66): >32 µg/mL
- MIC (A. baumannii [3]; strain ARC3494, OXA-65): 0.25 µg/mL
- MIC (A. baumannii [3]; [18]): >32 µg/mL
- MIC (A. baumannii [3]; [19]): >32 µg/mL
- MIC (A. baumannii [3]; strain ARC3515, OXA-64, OXA-58): 4 µg/mL
- MIC (A. baumannii [3]; strain ARC3657, OXA-130): 0.25 µg/mL
- MIC (A. baumannii [3]; [20]): >32 µg/mL
- MIC (A. baumannii [3]; strain ARC3659, OXA-23, OXA*): >32 µg/mL
- MIC (A. baumannii [3]; [21]): >32 µg/mL
- MIC (A. baumannii [3]; [22]): 0.5 µg/mL
- MIC (A. baumannii [3]; [23]): 0.125 µg/mL
- MIC (A. baumannii [3]; strain ARC5075, SHV-5, OXA-113): >32 µg/mL
- MIC (A. baumannii [3]; [24]): 8 µg/mL
- MIC (A. baumannii [3]; strain ARC5077, OXA*, OXA-72): >32 µg/mL
- MIC (A. baumannii [3]; strain ARC5079, OXA-72, OXA-65): 8 µg/mL
- MIC (A. baumannii [3]; strain ARC5080, OXA-71, OXA-40): >32 µg/mL
- MIC (A. baumannii [3]; strain ARC5081, OXA-94, OXA-23): 0.25 µg/mL
- MIC (A. baumannii [3]; strain ARC5082, OXA-66, OXA-23): 0.5 µg/mL
- MIC (A. baumannii [3]; strain ARC5083, OXA-66, OXA-23): >32 µg/mL
- MIC (A. baumannii [3]; [25]): >32 µg/mL
- MIC (A. baumannii [3]; strain ARC5085, OXA*, TEM-1): >32 µg/mL
- MIC (A. baumannii [3]; [26]): >32 µg/mL
- MIC (A. baumannii [3]; strain ARC5087, OXA-66, OXA-23): >32 µg/mL
- MIC (A. baumannii [3]; [27]): 8 µg/mL
- MIC (A. baumannii [3]; [28]): >32 µg/mL
- MIC (A. baumannii [3]; strain ARC5091, OXA-82, OXA-23): >32 µg/mL
- MIC (A. baumannii [3]; strain ARC5092, OXA-23, OXA-64): >32 µg/mL

Compound: colistin
- MIC (A. baumannii [3]; strain ARC593, OXA-98): 0.5 µg/mL
- MIC (A. baumannii [3]; strain ARC2058, OXA-95): 0.5 µg/mL
- MIC (A. baumannii [3]; strain ARC2461, OXA-66, TEM-1): 0.125 µg/mL
- MIC (A. baumannii [3]; strain ARC2462, TEM-1, OXA-66): 0.125 µg/mL
- MIC (A. baumannii [3]; [4]): 0.25 µg/mL
- MIC (A. baumannii [3]; [5]): 0.25 µg/mL
- MIC (A. baumannii [3]; [6]): 0.125 µg/mL
- MIC (A. baumannii [3]; strain ARC2674, SHV-5, OXA-113): 0.25 µg/mL
- MIC (A. baumannii [3]; strain ARC2675, SHV-5, OXA-113): 0.125 µg/mL
- MIC (A. baumannii [3]; [7]): 0.25 µg/mL
- MIC (A. baumannii [3]; strain ARC2682, SHV-5, OXA-113): 0.25 µg/mL
- MIC (A. baumannii [3]; strain ARC2777, OXA-172, TEM-1): 0.5 µg/mL
- MIC (A. baumannii [3]; [8]): 0.25 µg/mL
- MIC (A. baumannii [3]; [9]): 0.25 µg/mL
- MIC (A. baumannii [3]; [10]): 4 µg/mL
- MIC (A. baumannii [3]; [11]): 0.125 µg/mL
- MIC (A. baumannii [3]; strain ARC2788, OXA-65, TEM-1): 0.125 µg/mL
- MIC (A. baumannii [3]; [12]): 0.125 µg/mL
- MIC (A. baumannii [3]; strain ARC3485, OXA-82): 0.25 µg/mL
- MIC (A. baumannii [3]; [13]): 0.25 µg/mL
- MIC (A. baumannii [3]; [14]): 0.25 µg/mL
- MIC (A. baumannii [3]; strain ARC3488, OXA*, OXA-68): 2 µg/mL
- MIC (A. baumannii [3]; strain ARC3489, OXA*, OXA-68): 0.25 µg/mL
- MIC (A. baumannii [3]; [15]): 0.5 µg/mL
- MIC (A. baumannii [3]; [16]): 0.5 µg/mL
- MIC (A. baumannii [3]; [17]): 0.25 µg/mL
- MIC (A. baumannii [3]; strain ARC3493, OXA-40, OXA-66): 32 µg/mL
- MIC (A. baumannii [3]; strain ARC3494, OXA-65): 0.5 µg/mL
- MIC (A. baumannii [3]; [18]): 0.25 µg/mL
- MIC (A. baumannii [3]; [19]): 1 µg/mL
- MIC (A. baumannii [3]; strain ARC3515, OXA-64, OXA-58): 0.25 µg/mL
- MIC (A. baumannii [3]; strain ARC3657, OXA-130): 0.5 µg/mL
- MIC (A. baumannii [3]; [20]): 0.25 µg/mL
- MIC (A. baumannii [3]; strain ARC3659, OXA-23, OXA*): 0.25 µg/mL
- MIC (A. baumannii [3]; [21]): 0.125 µg/mL
- MIC (A. baumannii [3]; [22]): 0.125 µg/mL
- MIC (A. baumannii [3]; [23]): 0.125 µg/mL
- MIC (A. baumannii [3]; strain ARC5075, SHV-5, OXA-113): 0.25 µg/mL
- MIC (A. baumannii [3]; [24]): 0.25 µg/mL
- MIC (A. baumannii [3]; strain ARC5077, OXA*, OXA-72): 0.5 µg/mL
- MIC (A. baumannii [3]; strain ARC5079, OXA-72, OXA-65): 0.125 µg/mL
- MIC (A. baumannii [3]; strain ARC5080, OXA-71, OXA-40): 0.25 µg/mL
- MIC (A. baumannii [3]; strain ARC5081, OXA-94, OXA-23): 0.125 µg/mL
- MIC (A. baumannii [3]; strain ARC5082, OXA-66, OXA-23): 0.5 µg/mL
- MIC (A. baumannii [3]; strain ARC5083, OXA-66, OXA-23): 0.125 µg/mL
- MIC (A. baumannii [3]; [25]): 0.125 µg/mL
- MIC (A. baumannii [3]; strain ARC5085, OXA*, TEM-1): 1 µg/mL
- MIC (A. baumannii [3]; [26]): 0.125 µg/mL
- MIC (A. baumannii [3]; strain ARC5087, OXA-66, OXA-23): 0.25 µg/mL
- MIC (A. baumannii [3]; [27]): 0.125 µg/mL
- MIC (A. baumannii [3]; [28]): 0.125 µg/mL
- MIC (A. baumannii [3]; strain ARC5091, OXA-82, OXA-23): 8 µg/mL
- MIC (A. baumannii [3]; strain ARC5092, OXA-23, OXA-64): >32 µg/mL
